Patent US11458138B2 (Novartis AG, priority 2017, dated 2022)

Key:
[1] = tested on: Phospho-YAP (SER127) in HaCaT cells; experiment: pYAP HTRF Assay (HaCaT Cells); format: cell-based, human; conditions: Homo sapiens, 2 hours
Procedure, shortened: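 Phospho-YAP (Ser127) was measured by HTRF (665 nm/620 nm ratio) in HaCaT cells. Cells were grown 48 hours at 37° C at 5500 cells/well, exposed to compound for 2 hours, and incubated with detection reagents for 20 hrs at room temperature.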

[2] = tested on: Phospho-YAP (Ser127) in JHH-5 cells; experiment: pYAP HTRF Assay (JHH-5 cells); format: cell-based; conditions: 2 hours
Procedure: Briefly, JHH-5 cells are suspended at 0.48×10^6 cells/ml in William's E medium without phenol-red (Thermo Fisher Scientific Gibco catalog number A1217601) supplemented with 10% (v/v) heat-inactivated fetal bovine serum (Thermo Fisher Scientific Gibco catalog number 16140071) and penicillin-streptomycin at 100 U/ml each (Thermo Fisher Scientific Gibco catalog number 15140122). Cells are dispensed into 384well clear bottom culture plates (50 ul/well, at 24000 cells per well, Greiner catalog number 781091), and incubated for 24 hours in a cell culture incubator at 37° C. Test compounds are transferred into culture plates containing JHH-5 cells using an Echo550 (Labcyte) acoustic dispenser (50 nl/well), followed by incubation for 2 hours at 37° C. Lysis buffer (part of CisBio kit catalog number 64YAPPEI) is added to the assay plates as a four-fold concentrate (corresponding to 16 ul/well) and incubated for 30 minutes at room temperature with agitation. Lysate is transferred from culture plates into white low-volume 384well assay plates (12 ul/well, Greiner catalog number 784075), followed by the addition of 3 ul/well of detection antibodies (part of CisBio kit catalog number 64YAPPEI: 1:40 dilution of each pYAP d2 antibody and pYAP cryptate antibody stocks). The plates are sealed and incubated overnight (18 hours) at room temperature protected from light. Plates are read on an EnVision plate reader (Perkin Elmer) at emission wavelengths of 665 nm and 620 nm. The HTRF signal ratio x per well is calculated as [x=Signal(665 nm)/Signal(620 nm)×10000] as specified in the manufacturer's protocol.

[3] = tested on: YAP nuclear translocation in HaCaT cells; experiment: YAP Translocation Assay (HaCaT Cells); format: cell-based, human; conditions: Homo sapiens, 24 hours
Procedure, shortened: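 HaCaT cells (20,000/well) in DMEM + 10% FBS were plated overnight at 37° C, then exposed to compound for 24 h at 37° C. Cells were fixed with PFA, permeabilized with 0.1% Triton/1.5% BSA and imaged by high-content imaging.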

[4] = target: LATS1 (Homo sapiens (Human), UniProt O95835); experiment: LATS1 biochemical assay (Table 1A, Compound Examples 1-290; method in the earlier part)
LATS1, sequence (O95835 whole entry, looked up): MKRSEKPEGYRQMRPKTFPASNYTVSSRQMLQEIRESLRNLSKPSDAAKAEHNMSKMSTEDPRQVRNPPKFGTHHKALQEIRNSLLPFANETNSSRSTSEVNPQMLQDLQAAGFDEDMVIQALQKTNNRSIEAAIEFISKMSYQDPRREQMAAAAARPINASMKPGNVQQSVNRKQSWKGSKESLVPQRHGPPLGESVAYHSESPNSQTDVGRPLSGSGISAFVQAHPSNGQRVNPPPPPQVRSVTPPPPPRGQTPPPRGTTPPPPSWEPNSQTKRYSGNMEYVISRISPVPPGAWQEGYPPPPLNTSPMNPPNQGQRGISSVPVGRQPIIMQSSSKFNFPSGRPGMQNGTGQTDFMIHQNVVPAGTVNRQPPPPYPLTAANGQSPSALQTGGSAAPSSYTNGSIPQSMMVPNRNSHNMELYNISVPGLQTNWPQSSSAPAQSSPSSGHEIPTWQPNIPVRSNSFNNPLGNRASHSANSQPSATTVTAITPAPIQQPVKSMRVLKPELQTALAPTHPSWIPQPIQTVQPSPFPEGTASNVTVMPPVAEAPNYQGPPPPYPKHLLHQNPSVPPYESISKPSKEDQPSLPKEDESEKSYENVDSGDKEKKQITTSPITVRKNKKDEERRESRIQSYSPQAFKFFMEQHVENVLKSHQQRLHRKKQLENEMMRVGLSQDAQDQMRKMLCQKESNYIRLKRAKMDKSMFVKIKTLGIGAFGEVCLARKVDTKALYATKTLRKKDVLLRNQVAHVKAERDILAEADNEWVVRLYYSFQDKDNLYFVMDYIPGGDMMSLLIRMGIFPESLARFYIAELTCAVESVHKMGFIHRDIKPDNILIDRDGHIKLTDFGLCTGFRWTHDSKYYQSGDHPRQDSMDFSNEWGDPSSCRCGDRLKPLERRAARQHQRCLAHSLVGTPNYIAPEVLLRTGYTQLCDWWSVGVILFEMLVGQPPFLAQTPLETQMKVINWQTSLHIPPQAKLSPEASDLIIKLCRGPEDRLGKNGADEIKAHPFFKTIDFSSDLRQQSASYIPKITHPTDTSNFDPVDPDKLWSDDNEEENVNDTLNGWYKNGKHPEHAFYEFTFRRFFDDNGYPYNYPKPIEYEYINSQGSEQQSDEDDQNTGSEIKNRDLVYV
LATS1, sequence (Q7L9L4 whole entry partner, looked up): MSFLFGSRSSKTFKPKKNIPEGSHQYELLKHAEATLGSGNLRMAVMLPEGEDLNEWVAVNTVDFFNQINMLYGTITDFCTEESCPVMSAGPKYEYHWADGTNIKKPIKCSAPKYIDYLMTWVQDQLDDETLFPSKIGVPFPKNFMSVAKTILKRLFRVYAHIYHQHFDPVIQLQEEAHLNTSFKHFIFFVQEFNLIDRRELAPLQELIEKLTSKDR

IC50 [2] [µM]	IC50 [4] [µM]	SMILES	IC50 [1] [µM]	EC50 [3] [µM]
> 10	0.001	CCN(CC)c1nc(-c2ccncc2)nc2cnccc12 [Example 2]	0.067	0.584
1	0.001	CCN(c1nc(-c2ccncc2)nc2cnccc12)C(C)C [Example 3, N-ethyl-N-(propan-2-yl)-2-(pyridin-4-yl)pyrido[3,4-d]pyrimidin-4-amine]	0.853	0.641
1.6	0.002	COCC(C)(C)Nc1nc(-c2ccncc2)nc2cnccc12 [Example 7, N-(1-methoxy-2-methylpropan-2-yl)-2-(pyridin-4-yl)pyrido[3,4-d]pyrimidin-4-amine]	0.165	0.733
1.9	0.003	COCCC(C)(C)Nc1nc(-c2ccncc2)nc2cnccc12 [Example 8, N-(4-methoxy-2-methylbutan-2-yl)-2-(pyridin-4-yl)pyrido[3,4-d]pyrimidin-4-amine]	0.198	1.2
8.7	0.003	CCN(C)c1nc(-c2ccncc2)nc2cnccc12 [Example 10, N-ethyl-N-methyl-2-(pyridin-4-yl)pyrido[3,4-d]pyrimidin-4-amine]	2.96	3.55
4.1	0.004	CC(C)(Nc1nc(-c2ccncc2)nc2cnccc12)C1CCCCC1 [Example 15, N-(2-cyclohexylpropan-2-yl)-2-(pyridin-4-yl)pyrido[3,4-d]pyrimidin-4-amine]	0.66	3.48
> 10	0.328	CC(C)(CC(=O)O)Nc1nc(-c2ccncc2)nc2cnccc12 [Example 40, 3-methyl-3-{[2-(pyridin-4-yl)pyrido[3,4-d]pyrimidin-4-yl]amino}butanoic acid]	> 10	> 20
> 10	0.005	CC(C)(O)C(C)(Nc1nc(-c2ccncc2)nc2cnccc12)C(F)(F)F (stereo not shown) [Example 50, 4,4,4-trifluoro-2,3-dimethyl-3-{[2-(pyridin-4-yl)pyrido[3,4-d]pyrimidin-4-yl]amino}butan-2-ol]	17	3.81
1.4	0.001	CC(C)(CCO)Nc1nc(-c2ccncc2)nc2cnccc12 [Example 61, 3-methyl-3-{[2-(pyridin-4-yl)pyrido[3,4-d]pyrimidin-4-yl]amino}butan-1-ol]	0.141	0.517
2.1	0.001	FC(F)(F)C1(Nc2nc(-c3ccncc3)nc3cnccc23)CC1 [Example 64, 2-(pyridin-4-yl)-N-[1-(trifluoromethyl)cyclopropyl]pyrido[3,4-d]pyrimidin-4-amine]	0.063	0.479
3.5	0.002	CCC(C)Nc1nc(-c2ccncc2)nc2cnccc12 (stereo not shown) [Example 68, N-(butan-2-yl)-2-(pyridin-4-yl)pyrido[3,4-d]pyrimidin-4-amine]	1.23	3.39
4	0.003	C[C@]1(Nc2nc(-c3ccncc3)nc3cnccc23)C[C@@H](O)C1 [Example 70, (1r,3s)-3-methyl-3-{[2-(pyridin-4-yl)pyrido[3,4-d]pyrimidin-4-yl]amino}cyclobutan-1-ol]	0.422	1.68
> 10	0.004	CC(C)(O)C(C)(C)Nc1nc(-c2ccncc2)nc2cnccc12 [Example 71, 2,3-dimethyl-3-{[2-(pyridin-4-yl)pyrido[3,4-d]pyrimidin-4-yl]amino}butan-2-ol]	0.026	1.57
4.6	0.004	CC(C)(C)CC(C)(C)Nc1nc(-c2ccncc2)nc2cnccc12 [Example 72, 2-(pyridin-4-yl)-N-(2,4,4-trimethylpentan-2-yl)pyrido[3,4-d]pyrimidin-4-amine]	1.17	3.65
2.1	0.011	CC(C)(Cc1c[nH]c2ccccc12)Nc1nc(-c2ccncc2)nc2cnccc12 [Example 79, N-[1-(1H-indol-3-yl)-2-methylpropan-2-yl]-2-(pyridin-4-yl)pyrido[3,4-d]pyrimidin-4-amine]	0.765	3.87
> 10	0.021	CC(Nc1nc(-c2ccncc2)nc2cnccc12)(C(=O)O)C(F)(F)F (stereo not shown) [Example 84, 3,3,3-trifluoro-2-methyl-2-{[2-(pyridin-4-yl)pyrido[3,4-d]pyrimidin-4-yl]amino}propanoic acid]	65.2	> 20
> 10	0.025	OCCNc1nc(-c2ccncc2)nc2cnccc12 [Example 85, 2-{[2-(pyridin-4-yl)pyrido[3,4-d]pyrimidin-4-yl]amino}ethan-1-ol]	31	9.81
5.7	0.001	CC1(Nc2nc(-c3ccncc3)nc3cnccc23)CC1 [Example 99, N-(1-methylcyclopropyl)-2-(pyridin-4-yl)pyrido[3,4-d]pyrimidin-4-amine]	0.113	0.606
1.5	–	CN(C)CCC(C)(C)Nc1nc(-c2ccncc2)nc2cnccc12 [Example 109, dimethyl(3-methyl-3-{[2-(pyridin-4-yl)pyrido[3,4-d]pyrimidin-4-yl]amino}butyl)amine]	0.977	4.71
1.5	0.002	CC(C)(CN)Nc1nc(-c2ccncc2)nc2cnccc12 [Example 110, N-(1-amino-2-methylpropan-2-yl)-2-(pyridin-4-yl)pyrido[3,4-d]pyrimidin-4-amine]	2.97	15.3
3.2	0.002	CC(C)(C)Nc1nc(-c2ccnc(N)c2)nc2cnccc12 [Example 112, 4-[4-(tert-butylamino)pyrido[3,4-d]pyrimidin-2-yl]pyridin-2-amine]	1.21	3.52
3.4	0.002	CC(C)(C)Nc1nc(-c2c[nH]nc2C(F)(F)F)nc2cnccc12 [Example 115, N-tert-butyl-2-[3-(trifluoromethyl)-1H-pyrazol-4-yl]pyrido[3,4-d]pyrimidin-4-amine]	1.05	1.66
2.2	0.003	CC(C)(C)Nc1nc(-c2ccncc2Cl)nc2cnccc12 [Example 116, N-tert-butyl-2-(3-chloropyridin-4-yl)pyrido[3,4-d]pyrimidin-4-amine]	0.782	2.18
> 10	0.004	Cc1cnccc1-c1nc(NC(C)(C)C)c2ccncc2n1 [Example 117, N-tert-butyl-2-(3-methylpyridin-4-yl)pyrido[3,4-d]pyrimidin-4-amine]	2.31	4.47
4	0.005	CCC(C)(C)Nc1nc(-c2ccncc2Cl)nc2cnccc12 [Example 118, 2-(3-chloropyridin-4-yl)-N-(2-methylbutan-2-yl)pyrido[3,4-d]pyrimidin-4-amine]	2.05	5.01
8	0.015	CC(C)N(C)c1nc(-c2ccncc2F)nc2cnccc12 [Example 122, 2-(3-fluoropyridin-4-yl)-N-methyl-N-(propan-2-yl)pyrido[3,4-d]pyrimidin-4-amine]	7.4	5.8
> 10	–	c1cc(-c2cc(NC3CCCC3)c3ccncc3n2)ccn1 [Example 264, N-cyclopentyl-2-(pyridin-4-yl)-1,7-naphthyridin-4-amine]	14.8	11.2
> 10	0.017	CN(C)CCC(C)(C)Nc1cc(-c2ccncc2F)nc2cnccc12 [Example 276, (3-{[2-(3-fluoropyridin-4-yl)-1,7-naphthyridin-4-yl]amino}-3-methylbutyl)dimethylamine]	–	> 20
> 10	–	CC1(C)CC(O)CCN1c1cc(-c2ccncc2Cl)nc2cnccc12 (stereo not shown) [Example 283, 1-[2-(3-chloropyridin-4-yl)-1,7-naphthyridin-4-yl]-2,2-dimethylpiperidin-4-ol]	8.25	14.2
